Reference: patent US20130296432A1, “BENZOIC ACID-ENRICHED PLANT EXTRACTS AND USE THEREOF” (EPC (BEIJING) NATURAL PRODUCTS CO., LTD., priority 2012, published 2013)

System: Aspergillus niger
Assay: Bacteria inhibiting effect, dilution-plate method (colony count)
Format: cell-based
Conditions: 27° C., 72 h
Procedure: • 1. […] Dilution-plate method The preservatives were dissolved with sterilized water and diluted to the concentrations in Table 1. 1 ml of each sample was added into a sterilized Petri dish, and then 1 ml bacterial suspension was added into each dish. The sample and the bacterial suspension were well mixed in the dish and 20 ml sterilized culture medium was added into the dish at ≦45° C., such that the final concentration of the preservatives is as described in Table 1. After solidification, the dish was incubated in a constant temperature incubator at 27° C. for 72 h, and the number of the colony was then counted.

[1] = final concentration of the preservative 0.01 % (extract calculated as benzoic acid)
[2] = final concentration of the preservative 0.02 % (extract calculated as benzoic acid)
[3] = final concentration of the preservative 0.04 % (extract calculated as benzoic acid)

O=C(O)c1ccccc1 [Benzoic acid]
Inhibition [1]: 0%
colony number [1]: 49 cfu/dish
Inhibition [2]: 40%
colony number [2]: 32 cfu/dish
Inhibition [3]: 62%
colony number [3]: 20 cfu/dish

C/C=C/C=C/C(=O)O [Sorbic acid]
Inhibition [1]: 0%
colony number [1]: 50 cfu/dish
Inhibition [2]: 38%
colony number [2]: 33 cfu/dish
